System: WiDr cells expressing the human NTS1R
Assay: Cell uptake / internalization assay in WiDr cells
Format: cell-based
Conditions: confluent WiDr cells, 1 h, 37 °C, 250 fmol peptide, non-specific (1 μM NT) subtracted, average ± sd of 3 experiments in triplicate; for internalized fraction vs total added activity: acid wash then lysis
Method: Human colorectal adenocarcinoma WiDr cells (LGC Promochem, Teddington, UK) expressing the human NTS1R [52] were cultured in McCoy’s GLUTAMAX-I (Gibco BRL, Life Technologies, Grand Island, NY, USA) supplemented by 10% (v/v) fetal bovine serum (FBS), 100 U/mL penicillin and 100 μg/mL streptomycin (all from Biochrom KG Seromed, Berlin, Germany). Cells were kept in a controlled humidified atmosphere containing 5% CO2 at 37 °C. Passages were performed every 4–5 days using a trypsin/EDTA (0.05%/0.02% w/v) solution. The overall cell association–internalization of ^99mTc-DT1, ^99mTc-DT5 and ^99mTc-DT6 was assessed in confluent WiDr cells. Briefly, the cells were seeded in six-well plates (~1 × 10^6 cells per well) 24 h before the experiment. Each of ^99mTc-DT1, ^99mTc-DT5 and ^99mTc-DT6 (approximately 150,000 cpm, 250 fmol total peptide in 150 μL of 0.5% BSA/PBS) was added alone (total) or in the presence of 1 μM NT (non-specific). Cells were incubated at 37 °C for 1 h and incubation was interrupted by placing the plates on ice, removing the supernatants and rapid rinsing with ice-cold 0.5% BSA/PBS. Cells were then treated 2 × 5 min with acid wash buffer (2 × 0.6 mL, 50 mM glycine buffer, pH 2.8, 0.1 M NaCl) at room temperature and supernatants were collected (membrane-bound fraction). After rinsing with 1 mL chilled 0.5% BSA/PBS, cells were lyzed by treatment with 1 N NaOH (2 × 0.6 mL) and lysates were collected (internalized fraction). Sample radioactivity was measured in the γ-counter (an automated well-type gamma counter with a NaI(Tl) 3′′ crystal, Canberra Packard Auto-Gamma 5000 series instrument) and total cell-associated (internalized + membrane bound) radioactivity was determined vs. total added activity. Results represent the average values ± sd of 3 experiments in triplicate.

N4-Gly-Arg-Arg-Pro-Tyr-Ile-Leu-OH [^99mTc-DT1, ^99mTc-[N4-Gly^7]NT(7-13), ^99mTc-labeled acyclic tetraamine-coupled NT(7-13) analog DT1]
internalized fraction vs total added activity: 6.9 ± 2.1% | NTS1R-specific cell uptake (internalized + membrane bound) vs total added activity: 10.1 ± 2.3%

N4-βAla-Arg-Dab-Pro-Tyr-Ile-Leu-OH [^99mTc-DT5, ^99mTc-[N4-βAla^7,Dab^9]NT(7-13), ^99mTc-labeled acyclic tetraamine-coupled NT(7-13) analog DT5]
internalized fraction vs total added activity: 3.2 ± 0.3% | NTS1R-specific cell uptake (internalized + membrane bound) vs total added activity: 3.7 ± 0.3%

N4-βAla-Arg-Dab-Pro-Tyr-Tle-Leu-OH [^99mTc-DT6, ^99mTc-[N4-βAla^7,Dab^9,Tle^12]]NT(7-13), ^99mTc-labeled acyclic tetraamine-coupled NT(7-13) analog DT6]
internalized fraction vs total added activity: 0.8 ± 0.4% | NTS1R-specific cell uptake (internalized + membrane bound) vs total added activity: 1.0 ± 0.4%

Source: article PMC7356968, “Key-Protease Inhibition Regimens Promote Tumor Targeting of Neurotensin Radioligands” (Pharmaceutics, 2020)
